Test system: SH-SY5Y human neuroblastoma cells

Row | Substance | reduction in cell viability of cells treated with P188 alone compared to untreated controls | toxicity of poloxamer on its own to the cells compared to untreated controls
1 | poloxamer 188 [Poloxamer P188] | not statistically significant | –
2 | poloxamer 407 [Poloxamer P407] | – | non-toxic

— patent US20100316590A1, “COMPOSITIONS AND METHODS RELATED TO POLOXAMER COPOLYMER MEMBRANE SEALANT” (THE BOARD OF REGENTS OF THE UNIVERSITY OF TEXAS SYSTEM, priority 2009, published 2010)
